Literature values in US20040247626A1, “Stable aqueous dispersion of 1, 2-benzisothiazoline-3-one (bit)” (priority 2004, published 2004).

solubility in water: sparingly soluble
Structure (SMILES): O=c1[nH]sc2ccccc12 [BIT, 1,2-benzisothiazolin-3-one]
